Values quoted from earlier work as cited in paper PMC7172884 (Journal of Molecular Biology, 2006).

Tests used:
HAV 3C = target: T1, HAV 3C (Human hepatitis A virus genotype IB, UniProt P08617); conditions: in vitro, partial viral polyprotein (ΔP1-2A-2B) as substrate
T1 sequence (P08617 1520-1738 limits assumed): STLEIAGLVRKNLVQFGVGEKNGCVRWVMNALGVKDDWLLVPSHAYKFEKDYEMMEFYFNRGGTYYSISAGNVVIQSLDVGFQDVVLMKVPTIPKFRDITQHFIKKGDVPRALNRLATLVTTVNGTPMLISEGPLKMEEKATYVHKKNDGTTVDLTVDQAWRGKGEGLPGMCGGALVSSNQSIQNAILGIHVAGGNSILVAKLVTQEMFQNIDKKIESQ

HAV = conditions: HAV-infected cells, inhibitor at 5 μM

**Q.** What does the source list for “N-acetyl-leucyl-alanyl-alanyl-(N,N-dimethyl)-glutamine-fluoromethylketone [inhibitor Ia]”?
**A.** IC50 (HAV 3C): 41 µM; reduction of viral yield (HAV): 25 fold
